Key:
[1] = test system: LNCaP cells; experiment: In vitro combination of CG5757 and chemotherapeutic agents; assay type: cell-based, human
Protocol: (§1) Potential synergism between existing chemotherapeutic agents and the replication competent vectors of the present invention was investigated. Co-application of CG5757 with a variety of known chemotherapeutic agents was evaluated using an in vitro cell assay. A variety of known chemotherapeutic agents were tested in combination with CG5757 for their in vitro cytotoxic effect on Hep3B and LNCaP cells.

[2] = test system: Hep3B cells; experiment: as above; assay type: cell-based, human
Protocol: as §1

Row | Structure (SMILES) | combination effect with CG5757 [1] | combination effect with CG5757 [2] | cytotoxicity ([2]; 5 ng/ml, agent alone)
1 | CC(=O)O[C@H]1C(=O)[C@@]2(C)[C@H]([C@H](OC(=O)c3ccccc3)[C@]3(O)C[C@H](OC(=O)[C@H](O)[C@@H](NC(=O)c4ccccc4)c4ccccc4)C(C)=C1C3(C)C)[C@]1(OC(C)=O)CO[C@@H]1C[C@@H]2O [Taxol] | potential synergistic cytotoxicity | – | –
2 | COc1cccc2c1C(=O)c1c(O)c3c(c(O)c1C2=O)C[C@@](O)(C(=O)CO)C[C@@H]3O[C@H]1C[C@H](N)[C@H](O)[C@H](C)O1 [doxorubicin] | – | potential synergistic cytotoxicity | did not generate cytotoxicity

Source: patent publication US7473418B2, “Pan cancer oncolytic vectors and methods of use thereof” (Cell Genesys, Inc., priority 2004, dated 2009)
